Data on two molecules can be found in PMC7026080, “Phenotypic high-throughput screening platform identifies novel chemotypes for necroptosis inhibition” (Cell Death Discovery, 2020).

Each structure is given as a SMILES string. Converted amounts (≈) assume the structure as drawn. Where two headings read alike, the source gives them in different places.

A short description of data set [1]: Mouse pharmacokinetics, i.v. The conditions noted are these: plasma, iv, male C57BL/6J mice, 5 mg/kg i.v.; for AUC: read-out: Mouse AUC (in vivo); for Cmax: read-out: Mouse Cmax (in vivo); for clearance: read-out: Mouse clearance (in vivo) rate; for half-life: read-out: Mouse half-life (in vivo) T1/2 (converted); for Tmax: read-out: Tmax (in vivo). Format: in vivo. On the procedure: Pharmacokinetic measurements. Pharmacokinetic studies were performed in male C57BL/6J mice by Pharmaron (Pharmaron Beijing Co Ltd, Beijing, China). Compound (5 mg/kg body weight) was administered intravenously in vehicle (57% PBS, 32% DMSO, 4% PEG 400, 3% ethanol, 4% Tween 80). Blood samples obtained postdosing were collected in plastic microcentrifuge tubes containing EDTA-K2 and centrifuged at 4000 × g for 5 min to obtain plasma. The concentration of compound in plasma samples was determined using a liquid chromatography-tandem mass spectrometry (LC-MS/MS) method by monitoring transition from m/z 541 to 383 in ESI-positive mode. PK parameters were calculated by non-compartmental model using Phoenix WinNonlin v. 6.1 (Pharsight Corp, Certara, St. Louis, MO, USA).

The subject of data set [2] is L929 cells. Kind of data set: Long-term necroptosis inhibition in L929 cells + mTNF-α, 24 h, LDH release. Format: cell-based, murine. As to conditions: Mus musculus, 10 ng/mL mTNF-α, screening step 7, read-out: EC50 L929 + TNF-α (in vitro). The method, then:
(§1) The ability of compounds to interfere with specific steps of the necroptosis pathway, as well as inherent cytotoxicity and long-term necroptosis inhibitory effects were evaluated using in vitro necroptosis models (Fig. S1). Firstly, the 110 compounds were tested for their ability to modulate TNF-α-induced MLKL phosphorylation, a key necroptotic effector downstream of RIPK3[13]. […] Membrane integrity was evaluated by both AK and LDH release to exclude potential false positives.
(§2) Whole cell extracts were analysed by immunoblotting. […] Data represent mean values ± SEM of three independent experiments normalized to untreated control. Cell viability was assessed using a colorimetric-based readout for LDH release.
(§3) Whole cell extracts were analysed by immunoblotting. Data shown are representative blots and quantification of p-MLKL/MLKL ratio from one single experiment, in fold-change from control. […] Data represent mean values ± SEM of three independent experiments normalized to untreated control. Cell viability was assessed using a colorimetric-based readout for LDH release. c In vitro screening results for seven selected compounds at different stages of the HTS cascade. TEXT PRINTED IN THE PICTURE: (C) Nec-1: EC50 [μM] L929 + TNF-α (in vitro): 1.25 (Screening Step: 1; Time Point: 8 h); EC50 [μM] L929 + TNF-α (in vitro): 1.13 (Screening Step: 7; Time Point: 24 h); EC50 [μM] […]

In data set [3] the test system is L929 cells. Nature of the data set: Cytotoxicity in L929 cells without TNF-α, 24 h, LDH release. Format: cell-based, murine. The conditions noted are these: Mus musculus, absence of TNF-α, toxicity, screening step 7, read-out: IC50 L929 (in vitro). The method, then:
as §1, §2, §3

The nature of data set [4]: Human microsomal clearance (in vitro). The format is in vitro ADME. The conditions noted are these: microsomes, read-out: Human microsomal clearance (in vitro) rate.
The nature of a further data set: Aqueous solubility. The format is physicochemical. As to conditions: read-out: Aqueous solubility, concentration.

Turning to `O=C(c1cnn(Cc2ccccc2)c1)N1CCOc2ccccc2C1` [SN-6109], in data set [1], the AUC came to 2.34 µM·h, the highest concentration (Cmax) came out at 10.2 µM, the clearance amounted to 107 mL/min/kg and the half-life was 18.6 min. Further, the Tmax in data set [1] was determined as 1.8 min. In addition, the EC50 in the data set with L929 cells [2] came out at 11.5 µM. Moreover, the IC50 in the data set on L929 cells [3] was more than 100 µM. In data set [4], the microsomal CLint is 42 µL/min/mg. Also, the solubility in “Aqueous solubility” (aqueous medium (not further specified)) stood at 47 µM (≈ 15.7 µg/mL).
With `CN1C(=O)C(Cc2c[nH]c3ccccc23)NC1=S` (stereo not drawn) [Nec-1, necrostatin-1], in data set [1], the AUC came out at 3.21 µM·h, the Cmax is 11.3 µM, the clearance came out at 101 mL/min/kg and the half-life was 26.4 min. For the same molecule, the Tmax in data set [1] stood at 1.8 min. Besides, the EC50 with L929 cells [2] was found to be 1.13 µM. Besides, the IC50 in the data set on L929 cells [3] is more than 100 µM. Besides, the microsomal CLint in data set [4] worked out at 59 µL/min/mg. Moreover, the solubility in “Aqueous solubility” is 97 µM (≈ 25.2 µg/mL).
